# Measured values as given in ChEMBL document CHEMBL3822441, “Azadirachta indica triterpenoids promote osteoblast differentiation and mineralization in vitro and in vivo” (2016).
# Activity calls are given as the source filed them. The rule behind the calls is not given here.
# Assays:
# [1] = test system: Calvarial osteoblast; assay: Osteogenic activity in rat primary calvarial osteoblasts at 10 nM after 48 hrs by ALP-based colorimetric assay; assay type: functional, cell-based
# [2] = test system: Calvarial osteoblast; assay: Induction of mineralization in rat primary calvarial osteoblasts assessed as mineralized nodule formation at 10 to 1000 nM after 12 days by alizarin red S-staining based assay relative to control; assay type: functional, cell-based
# [3] = Upregulation of ALP mRNA expression in rat primary calvarial osteoblasts at 100 pM by RT-PCR analysis relative to control; assay type: functional, cell-based; details: Calvarial osteoblast
# [4] = test system: Calvarial osteoblast; assay: Induction of cell proliferation in rat primary calvarial osteoblasts at 0.1 to 10 nM after 48 hrs by BrDU-staining based assay relative to control; assay type: functional
# [5] = Upregulation of RunX-2 mRNA expression in rat primary calvarial osteoblasts at 100 pM by RT-PCR analysis relative to control; assay type: functional, cell-based; details: Calvarial osteoblast
# [6] = test system: Calvarial osteoblast; assay: Osteogenic activity in rat primary calvarial osteoblasts at 100 pM after 48 hrs by ALP-based colorimetric assay; assay type: functional, cell-based
# [7] = Upregulation of OCN mRNA expression in rat primary calvarial osteoblasts at 100 pM by RT-PCR analysis relative to control; assay type: functional, cell-based; details: Calvarial osteoblast
# [8] = test system: Calvarial osteoblast; assay: Induction of cell proliferation in rat primary calvarial osteoblasts at 10 nM nM after 48 hrs by BrDU-staining based assay relative to control; assay type: functional
# [9] = Upregulation of ALP mRNA expression in rat primary calvarial osteoblasts at 10 nM […] by RT-PCR analysis relative to control; assay type: functional, cell-based; details: Calvarial osteoblast
# [10] = Upregulation of RunX-2 mRNA expression in rat primary calvarial osteoblasts at 10 nM by RT-PCR analysis relative to control; assay type: functional, cell-based; details: Calvarial osteoblast
# [11] = test system: Calvarial osteoblast; assay: Induction of mineralization in rat primary calvarial osteoblasts assessed as mineralized nodule formation at 0.001 to 10 nM after 12 days by alizarin red S-staining based assay relative to control; assay type: functional, cell-based
# [12] = Upregulation of OCN mRNA expression in rat primary calvarial osteoblasts at 10 nM by RT-PCR analysis relative to control; assay type: functional, cell-based; details: Calvarial osteoblast
# [13] = test system: Rattus norvegicus; assay: Osteogenic activity in rat assessed as upregulation of ALP mRNA expression in calvarial osteoblasts at 5 mg/kg/day, sc dosed for 3 days by RT-PCR analysis relative to control; assay type: functional
# [14] = test system: Rattus norvegicus; assay: Osteogenic activity in rat assessed as upregulation of RunX-2 mRNA expression in calvarial osteoblasts at 0.5 mg/kg/day, sc dosed for 3 days by RT-PCR analysis relative to control; assay type: functional
# [15] = test system: Rattus norvegicus; assay: Osteogenic activity in rat assessed as upregulation of RunX-2 mRNA expression in calvarial osteoblasts at 5 mg/kg/day, sc dosed for 3 days by RT-PCR analysis relative to control; assay type: functional
# [16] = test system: Rattus norvegicus; assay: Osteogenic activity in rat assessed as upregulation of COL-1 mRNA expression in calvarial osteoblasts at 1 mg/kg/day, sc dosed for 3 days by RT-PCR analysis relative to control; assay type: functional
# [17] = test system: Rattus norvegicus; assay: Induction of bone formation in rat assessed as increase in mineral appositional rate in calvarial osteoblasts at 1 mg/kg/day, sc dosed for 3 days by dynamic histomorphometric analysis relative to control; assay type: functional
# [18] = test system: Rattus norvegicus; assay: Osteogenic activity in rat assessed as upregulation of RunX-2 mRNA expression in calvarial osteoblasts at 10 mg/kg/day, sc dosed for 3 days by RT-PCR analysis relative to control; assay type: functional
# [19] = test system: Rattus norvegicus; assay: Osteogenic activity in rat assessed as upregulation of RunX-2 mRNA expression in calvarial osteoblasts at 1 mg/kg/day, sc dosed for 3 days by RT-PCR analysis relative to control; assay type: functional
# [20] = test system: Rattus norvegicus; assay: Osteogenic activity in rat assessed as upregulation of COL-1 mRNA expression in calvarial osteoblasts at 5 mg/kg/day, sc dosed for 3 days by RT-PCR analysis relative to control; assay type: functional
# [21] = test system: Rattus norvegicus; assay: Induction of bone formation in rat assessed as increase in bone-formation rate in calvarial osteoblasts at 5 mg/kg/day, sc dosed for 3 days by dynamic histomorphometric analysis relative to control; assay type: functional
# [22] = test system: Rattus norvegicus; assay: Induction of bone formation in rat assessed as increase in bone-formation rate in calvarial osteoblasts at 1 mg/kg/day, sc dosed for 3 days by dynamic histomorphometric analysis relative to control; assay type: functional
# [23] = test system: Rattus norvegicus; assay: Induction of bone formation in rat assessed as increase in mineral appositional rate in calvarial osteoblasts at 5 mg/kg/day, sc dosed for 3 days by dynamic histomorphometric analysis relative to control; assay type: functional
# [24] = test system: Rattus norvegicus; assay: Induction of bone formation in rat assessed as increase in bone-formation rate in calvarial osteoblasts at 10 mg/kg/day, sc dosed for 3 days by dynamic histomorphometric analysis relative to control; assay type: functional
# [25] = test system: Calvarial osteoblast; assay: Osteogenic activity in rat primary calvarial osteoblasts at 1 pM after 48 hrs by ALP-based colorimetric assay; assay type: functional, cell-based
structure (smiles),measurement,setting,value
CC(=O)O[C@@H]1C[C@H]2C(C)(C)C(=O)C=C[C@]2(C)[C@H]2CC[C@@]3(C)[C@H](c4ccoc4)C(=O)[C@H]4O[C@]43[C@@]21C,Activity,[1],Active
CC(=O)O[C@@H]1C[C@H]2C(C)(C)C(=O)C=C[C@]2(C)[C@H]2CC[C@]3(C)C(=CC[C@H]3c3ccoc3)[C@@]21C,Activity,[2],Active
same,Activity,[3],inactive
same,Activity,[4],Active
same,fold change (FC),[5],2.7
same,Activity,[6],Active
same,fold change (FC),[7],2.3
C[C@]12CC[C@@H]3c4ccc(O)cc4CC[C@H]3[C@@H]1CC[C@@H]2O,Activity,[8],Active
C/C=C(\C)C(=O)O[C@@H]1C[C@H](O)[C@]23CO[C@H](C(=O)OC)[C@H]2[C@](C)([C@]24O[C@@]2(C)[C@H]2C[C@@H]4O[C@@H]4OC=C[C@@]42O)[C@H](O)[C@@H]2OC[C@@]1(C(=O)OC)[C@H]23,fold change (FC),[3],2.8
same,Activity,[4],Active
same,fold change (FC),[9],2.8
same,fold change (FC),[10],2.5
same,Activity,[11],Active
same,Activity,[6],Active
same,fold change (FC),[12],2.5
C/C=C(\C)C(=O)O[C@H]1C[C@@H](OC(C)=O)[C@@]2(C(=O)OC)CO[C@H]3[C@@H](O)[C@@](C)([C@@]45O[C@@]4(C)[C@H]4C[C@@H]5O[C@@H]5OC=C[C@@]54O)[C@H]4[C@]1(CO[C@]4(O)C(=O)OC)[C@@H]32,fold change (FC),[13],2
same,fold change (FC),[14],5
same,fold change (FC),[3],4.5
same,fold change (FC),[15],7.5
same,fold change (FC),[16],7
same,Activity,[4],Active
same,fold change (FC),[5],3.5
same,fold change (FC),[17],3.4
same,fold change (FC),[18],3
same,fold change (FC),[19],7
same,fold change (FC),[20],3.5
same,fold change (FC),[21],5
same,Activity,[11],Active
same,fold change (FC),[22],4
same,fold change (FC),[23],4
same,Activity,[6],Active
same,fold change (FC),[24],3.2
same,fold change (FC),[7],3
C/C=C(\C)C(=O)O[C@H]1C[C@@H](OC(C)=O)[C@@]2(C)CO[C@H]3[C@H]4O[C@@H]5C[C@@H](c6ccoc6)C(C)=C5[C@@]4(C)[C@H](CC(=O)OC)[C@]1(C)[C@@H]32,Activity,[25],Active
